Measurements reported in PMC9150102 (Journal of Medicinal Chemistry, 2022).

Tests used:
SERCA2a = target: T1, SERCA2a (Cavia porcellus, UniProt A0A286XFU8); test: SERCA2a ATPase activity, Ca2+ dependency in cardiac SR microsomes from healthy guinea pigs; type: biochemical, guinea pig
T1 construct: from tissue; host or cells: guinea pig left ventricle, SR-enriched microsomes
Method: SERCA2a ATPase activity was assessed in SR preparations from healthy guinea pig hearts. Ca^2+ dependency of ATPase activity was measured, and kinetic parameters (KdCa and Vmax) were estimated at compound concentrations of 10 and 100 nM.
[…] […] Data are the mean ± SEM. *p < 0.05 (one-way RM ANOVA plus post hoc Tukey’s multiple comparisons or paired t-test).
Measurements were performed in cardiac SR microsomes (guinea pig) and in whole tissue homogenates (rat). Cardiac preparations included SERCA2a and PLN. To test for PLN involvement in the effect of compounds, SERCA1 activity was measured in PLN-free microsomes (from guinea pig skeletal muscle) before and after reconstitution with the synthetic PLN1–32 inhibitory fragment at a ratio of 300:1 for PLN/SERCA. […] Either an increase in Vmax (rat) or a decrease in KdCa (increased Ca^2+ affinity) (guinea pig) stands for enhancement of SERCA function. […]
Left ventricles (LV) were dissected from rat and guinea -pig of healthy and failing preparations and frozen until use. Tissues were homogenized, subjected to centrifugation to obtain SR -enriched microsomes and sarcomeric proteins were extracted, as previously described 4.
In the case of guinea-pig hearts, LV tissues were homogenized in 4 volumes of 10 mM NaHCO3, 1 mM PMSF, 10 μg/ml aprotinin and leupeptin (pH 7) and centrifuged at 12,000g for 15 minutes. Supernatants were filtered and centrifuged at 100,000 g for 30 min. Contractile proteins were extracted by suspending the pellets with 0.6 M KCl, 30 mM histidine, pH 7 and further centrifugation at 100,000 g for 30 min.
Final pellets were reconstituted with 0.3 M sucrose, 30 mM histidine, pH 7, to obtain SR-enriched […]
SERCA2a ATPase activity was measured as the rate of 32P-ATP release at multiple Ca2+ concentrations (100-2000 nM) in the absence and presence of tested compounds, as previously described5. Increasing concentrations of each compound were pre-incubated with 2 μg of cardiac preparations for 5 min at 4° C in 80 μl of a solution containing 100 mM KCl, 5 mM MgCl2, 1 μM A23187, 20 mM Tris, pH 7.5. Then, 20 μl of 5 mM Tris-ATP containing 50 nCi of 32P-ATP (3-10 Ci/mmol, Perkin Elmer) were added. The ATP hydrolysis was continued for 15 min at 37°C and the reaction was stopped by acidification with 100 μl of 20% ice-cold perchloric acid. 32P was separated by centrifugation with activated charcoal (Norit A, Serva) and the radioactivity was measured. SERCA2a-dependent ATPase activity was identified as the portion of total hydrolytic activity inhibited by cyclopiazonic acid (CPA, 10 µM). Technical replicates were used to ensure the reliability of single values. […]

[1] = target: T2, Na^+/K^+ ATPase-alpha1 isoform purified from dog kidneys (Canis lupus familiaris, UniProt P50997); set-up: method as in PMID 36153005; settings: cited from earlier work
T2 construct: excised from 1–3-year-old male beagle dogs; from tissue; host or cells: dog (beagle) kidney outer medulla, Jørgensen purification

STZ diabetic rats = test system: STZ diabetic rats; set-up: method as in PMID 36153005; settings: cited from earlier work
[2] = cited from earlier work
[3] = Acute toxicity (LD50) in mice; settings: male, Albino Swiss CD-1, mouse, in vivo, po
Method: Acute toxicity (LD50) was preliminarily evaluated in mice following i.v. and oral drug administration.
Control animals received the vehicle only.
Drug toxicity studies in mice
Acute toxicity was determined in CD1 mice. Separate mice groups were either orally treated, or
intravenously injected, with increasing doses of the tested substance to identify the dose causing 50%
mortality (LD50). Acute mortality was assessed at 30 min after compound administration; survival was

T1 sequence (A0A286XFU8 entry or part of it): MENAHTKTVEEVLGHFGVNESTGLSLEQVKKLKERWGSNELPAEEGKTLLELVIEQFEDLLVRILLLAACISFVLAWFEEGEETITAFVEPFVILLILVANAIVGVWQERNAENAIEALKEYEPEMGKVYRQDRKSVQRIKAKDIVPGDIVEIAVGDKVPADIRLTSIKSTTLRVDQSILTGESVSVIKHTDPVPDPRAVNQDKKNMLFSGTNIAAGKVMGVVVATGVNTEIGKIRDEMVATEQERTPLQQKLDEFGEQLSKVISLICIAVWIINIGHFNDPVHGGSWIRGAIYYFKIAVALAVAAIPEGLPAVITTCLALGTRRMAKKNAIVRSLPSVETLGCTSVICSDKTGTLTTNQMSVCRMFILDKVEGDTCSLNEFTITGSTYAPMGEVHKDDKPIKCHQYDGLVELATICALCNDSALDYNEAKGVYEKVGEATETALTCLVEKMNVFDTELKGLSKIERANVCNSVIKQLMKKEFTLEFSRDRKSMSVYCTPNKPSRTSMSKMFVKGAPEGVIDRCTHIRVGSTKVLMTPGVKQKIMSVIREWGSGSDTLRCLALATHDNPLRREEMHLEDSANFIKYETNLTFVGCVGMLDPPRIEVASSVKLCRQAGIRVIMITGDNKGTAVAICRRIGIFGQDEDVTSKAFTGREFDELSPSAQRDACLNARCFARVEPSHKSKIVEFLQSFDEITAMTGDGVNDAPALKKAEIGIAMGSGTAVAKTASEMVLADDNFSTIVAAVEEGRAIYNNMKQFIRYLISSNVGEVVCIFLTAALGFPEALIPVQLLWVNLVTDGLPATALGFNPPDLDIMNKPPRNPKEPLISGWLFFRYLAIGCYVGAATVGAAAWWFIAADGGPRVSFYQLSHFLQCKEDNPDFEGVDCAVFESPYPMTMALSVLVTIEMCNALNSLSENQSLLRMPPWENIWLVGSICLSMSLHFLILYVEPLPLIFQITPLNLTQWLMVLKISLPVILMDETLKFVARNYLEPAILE

SMILES: C[C@]12CC/C(=N\OCC(=O)O)C[C@@H]1[C@H](O)C[C@@H]1[C@@H]2CC[C@]2(C)C(=O)CC[C@@H]12 [PST3093, reference compound]
- SERCA2a KdCa reduced by (SERCA2a; 1 nM): 18%
- SERCA2a KdCa change (SERCA2a; 100 nM, guinea pig microsomal preparations): −25%
- SERCA2a KdCa reduced by (SERCA2a; 100 nM, guinea pig preparation): 25%
- activity against Na+/K+ ATPase [1]: inactive
- systolic indexes (STZ diabetic rats): improved systolic indexes
- half-life [2]: ~10 h
- LD50 at 24 h [3]: > 200 mg/kg
